Tests used:
EAC-induced solid tumor = experiment: Antitumor activity: reduction in tumor volume of EAC-induced solid tumor; assay type: in vivo, Swiss female albino mice; settings: day 12 (last day of treatment), 100 mg/kg SC daily for five consecutive days
Protocol: The aim of this study is to characterize indoloquinoline analogs 6a–d curative ability and antineoplastic activity on solid-form of Ehrlich tumors. Tumor volume is a potential biomarker for Ehrlich tumor development. The induction of solid tumor in Swiss female mice performed by inserting 0.2 mL of EAC cells (2 × 10^6 cell/mL) subcutaneously (SC) between thighs of the lower limb. When the tumor volume reached 15–20 mm^3 (Seven days after tumor induction), the mice were randomly divided into 6 groups (n = 10), five groups were injected subcutaneously with thalidomide and indoloquinoline analogs 6a–d (100 mg/kg) daily for five consecutive days, the sixth group (positive control group) were given DMSO/saline (0.3/0.7). The 8th day is considered the zero days of treatment. The tumor volume was daily measured with a vernier caliper for four days stated from day eight.
Thalidomide and indoloquinoline derivatives 6a–d were tested for their antitumor effect; the test was done in vivo on mice-bearing solid tumors. The induction of solid tumor in Swiss female mice performed by inserting 0.2 mL of EAC cells (2 × 10^6 cell/mL) subcutaneously (SC) between thighs of the lower limb. Seven days after tumor induction, animals were divided into 6 groups (n = 10), five groups were injected subcutaneously with 100 mg/kg of tested compounds daily for 5 consecutive days, the sixth group (positive control group) were given 0.3 DMSO/0.7 H2O. On day twelve, after carrying out EAC cells, mice were sacrificed, dissected, and change in tumor mass was evaluated by measuring the developed tumor mass volume using the formula [45, 46]:Tumor volume (mm^3) = 0.52 × length × (width)^2.(1)

MG-63 cells = test system: MG-63 cells; set-up: method as in PMID 18951804, PMID 2953123; settings: ref [34],[35]; cited from earlier work
[1] = test system: Ehrlich ascites carcinoma (EAC) cells; experiment: In vitro cytotoxic activity, trypan blue dye exclusion; assay type: cell-based, mice; settings: Mus musculus, Ehrlich, 3 h incubation at 37 °C
Protocol: The synthesized indoloquinoline analogs 6a–d were evaluated for their cytotoxic activity against Ehrlich ascites carcinoma (EAC), as depicted in Table 1. The EAC cells used in this study were supplied by National Cancer Institute, Cairo, Egypt. The cells were maintained in vivo in Swiss Albino female mice by intraperitoneal transplantation (0.2 mL of 2 × 10^6 cells/mL). EAC cells were aspirated from the peritoneal cavity of mice, washed with saline and given intraperitoneally to develop ascites tumor. Trypan blue dye exclusion technique was used to figure the viability percentage of EAC cells to assay the cytotoxic activity of the studied compounds. In brief, under completely sterile conditions, EAC cells were separated away from the mice abdomens. Hank’s balanced salt solution (HBSS) was used to wash the separated cells. Cells were put in a cooling centrifuge at 1500 rpm for 15 min; the produced granules were put back into suspension using HBSS, the mentioned steps were done in triplicate. Finally, a measured volume of RPMI 1640 was used to suspend the cells, followed by the addition of 10% fetal bovine serum, 10 µg/mL streptomycin and 100 U/mL penicillin. Consequently, the cell count was adjusted to 2 × 10^6 cells/mL from the prepared diluted cell suspension 0.2 mL was titrated in 96 flat-bottomed tissue culture plates. Serial concentrations of each tested compound were prepared and added in triplicate and incubated at 37 °C for 3 h in a 5% CO2 atmosphere. The IC50 parameter (half-maximum inhibitory concentration) was calculated using Trypan blue dye exclusion test, and then the cytotoxic effect was evaluated using control EAC cells. Thalidomide was used as a reference drug alongside the parent natural compound neocryptolepine I for comparison. Thalidomide was used as a reference drug because its mechanism of action is expected to be similar to the mechanism of action of neocryptolepine analogs as its anticancer action may be based on its antiangiogenic action, resulting from specific DNA intercalation as well as induce cell cycle arrest.
The percentage of EAC cell death of the synthesized derivatives was evaluated by trypan blue exclusion assay. In addition, the compounds 6a–d, as well as the reference drug thalidomide and the parent natural compound neocryptolepine (I), were evaluated through eight concentration levels. It is worth noting that this cytotoxicity was dose-dependent when compared to the reference drug, thalidomide and the control, which was treated with the corresponding dilutions of DMSO.
As a preparation step to perform cytotoxicity assay against the EAC cell line, thalidomide, parent neocryptolepine and the indoloquinoline compounds a 6a, 6b, 6c and 6d were dissolved in DMSO/saline (0.3:0.7) to prepare a solution of 10 mmol concentration. The stock solutions were stored at 4 °C and were used all over the assay. EAC cells were supplied by the National Cancer Institute, Cairo, Egypt. The cells were maintained in vivo in Swiss albino female mice by intraperitoneal transplantation (0.2 mL of 2 × 10^6 cells/mL). EAC cells were aspirated from the peritoneal cavity of mice, washed with saline, and given intraperitoneally to develop ascites tumor.
Trypan blue dye exclusion technique was used to figure the viability percentage of EAC cells to assay the cytotoxic activity of the studied compounds. In brief, under completely sterile conditions, EAC cells were separated away from the mice’s abdomen. Hank’s balanced salt solution (HBSS) was used to wash the separated cells. The cells were put in a cooling centrifuge at 1500 rpm for 15 min; the produced granules were put back into suspension using HBSS, the mentioned steps were done in triplicate. Finally, a measured volume of RPMI 1640 was used to suspend the cells, followed by the addition of 10% fetal bovine serum, 10 µg/mL streptomycin and 100 U/mL penicillin and the cell count was adjusted to 2 × 10^6 cells/mL. […]

[2] = test system: solid-tumor (EAC) bearing mice (liver homogenate); experiment: Lipid peroxidation and antioxidant enzymes in liver homogenate of solid-tumor bearing mice; assay type: in vivo, Swiss female albino mice; settings: 100 mg/kg for 5 days, liver
Protocol: Measuring antioxidant enzyme levels and lipid peroxidation was utilized to evaluate the pharmacological effect of indoloquinoline derivatives. The study group was divided into two subgroups, normal mice and tumor-bearing mice. Each subgroup is further subdivided into two groups, one group received indoloquinoline derivatives, and the other group was marked as a placebo group.
After administration of indoloquinoline analogs 6a, 6b, 6c and 6d at a dose of 100 mg/kg for 5 constitutive days to mice with EAC, the levels of lipid peroxidation were highly significant less than that of the positive control group (p < 0.001). Meanwhile, the level of SOD in the liver homogenate of positive bearing mice was 32.1% (p < 0.001) less than that of the normal group (Table 5).
The eradicated liver was double washed first, with ice-cold normal saline then, with cold 0.15 mol/L Tris-HCl buffer (pH 7.4). The clean organ was dried and weighed, and used to prepare a 10% w/v homogenate in 0.15 mol/L Tris-HCl buffer. A portion of the prepared homogenate was centrifuged at 1500 rpm for 15 min at 4 °C [47] and used for estimating lipid peroxidation, SOD [48] and CAT [49] analysis was carried out using the supernatant.

[3] = DPPH free radical scavenging assay; settings: means ± SD (n = 3); amount needed to scavenge 50% of DPPH radicals
Protocol: Over-production and the accumulation of free radicals inside the body leads to a phenomenon known as oxidative stress, which causes many serious diseases such as cancer, cardiovascular, and inflammation. Moreover, the harmful effects of this phenomenon can be reduced via using antioxidant compounds as free radical scavengers. Therefore, free radical scavenging capabilities were determined for all compounds by 2,2-diphenyl-1-picrylhydrazyl (DPPH) assay using ascorbic acid (AA) as standard for comparison. The DPPH reducing capabilities of the synthetic analogs 6a–d were evaluated by determining their IC50 values. […] The IC50 value corresponds to the concentration of a sample, which has the ability to scavenge 50% of the free radicals present in the reaction mixture. Low IC50 values indicate that the compound in the sample has high antioxidant activity. […] At the same time, the analog 6c with pyrimidine moiety had the lowest antioxidant activity (9.2 × 10^−5 µM). […]
To 1 mL of various concentrations of ascorbic acid, neocryptolepine and indoloquinoline analogs prepared from methanol, 1 mL solution of DPPH, 0.1 mM was added. […] After 20 min incubation in the dark, absorbance was recorded at 517 nm. […] The percentage scavenging of the extract was calculated.

O=C1CCC(N2C(=O)c3ccccc3C2=O)C(=O)N1 (centres unmarked) [Thalidomide, reference compound]
reduction percentage in tumor volume (EAC-induced solid tumor): 67.20% | effect on cell cycle (MG-63 cells): induced cell cycle arrest by increasing the number of cells in the G0/G1 phase and decreasing the percentage of S phase | IC50 [1]: 0.26 nM | CAT [2]: 5.8 ± 1.5 KU/mg Tissue/s | Lipid Peroxidation [2]: 330.2 ± 8.1 nmol MDA/g Tissue | SOD [2]: 108.4 ± 10.2 U/g Tissue

Cn1c2nc3ccccc3c-2cc2ccccc21 [Neocryptolepine, 5-methyl-5H-indolo[2,3-b] quinoline]
IC50 [1]: 0.54 nM

O=C1O[C@H]([C@@H](O)CO)C(O)=C1O [Ascorbic acid, ascorbic acid]
IC50 [3]: 0.042 nM
